How the values were obtained:
[1] = system: beta amyloid (1-42) injected mice; assay: Behavior tests with acute AD model taken together (Y-maze, cognitive performance, passive avoidance); type: in vivo; details: data of Table 6, with statistical significance
Method: (§1) Mice 4-5 weeks old, each weighing 20˜25 g, were divided into groups of six. Intracerebroventricular injection was performed with a 50 μl Hamilton microsyringe fitted with a disposable 26-gauge needle as described by Laursen and Belknap (Laursen & Belknap, J. Pharmacol. Methods. 1986, 16, 355). It was inserted 2.4 mm deep into the bregma. All samples were administered to groups of 10 via oral routes or food pellets. After the intracerebroventricular injection, the compounds of the present invention were administered for 2 days to the mice which were then subjected to the Y-maze test on Day 2, the cognition test on Days 2 and 3, the passive avoidance test on Days 3 and 4, and the water maze test on Days 3 to 7. All data were averages of 6 measurements (mice).
(§2) Short-term memory was assessed by spontaneous alternation behavior in the Y-maze task. Spontaneous alternation behavior is considered to reflect spatial working memory, which is a form of short-term memory. A mouse was placed in one arm of a Y-maze and allowed to freely pass the three arms for 8 min. Spontaneous alternation behavior was defined as successive entries into the three arms. Percentage spontaneous alternation was calculated as the ratio of actual to possible alternations […], multiplied by 100.
(§3) For the cognitive performance task, two identical substances were respectively placed 5 cm apart from two corners and the time it took for a mouse to investigate the given and new substances was measured. Investigation was defined as the condition in which a mouse sniffed with the head directing toward the substance within a diameter of 2 cm or touched the substance.
(§4) A passive avoidance test was performed as described in the literature (Song et al. J. Neurochem., 1998, 71, 875). Used was a passive avoidance box which was divided into two compartments: a lighted one and a dark one, separated by an automatic guillotine door. For training, mice were placed in the lighted compartment and electrically shocked with 0.25 mA for 1 sec whenever they entered the darkened compartment. 24 hours after training, the mice were placed in the lighted compartment and measured for latency time before entering the darkened compartment.

[2] = system: beta amyloid (1-42) injected mice; assay: Passive avoidance test, acute Alzheimer's disease model; type: in vivo; design: Passive Avoidance % of control: concentration or dose not given beside the values; details: for Passive Avoidance % of control: latency relative to control mice; for Passive Avoidance Latency: mice i.c.v. injected with beta amyloid (1-42), test on Days 3 and 4, 24 hours after training
Method: as §1, §4

[3] = system: HT-22 cells incubated with beta amyloid (Aβ25-35); assay: Alleviating effect on beta amyloid toxicity in HT-22 cells (MTT); type: cell-based, murine; details: Mus musculus, compound pre-incubated 1 hr, then 25 μM beta amyloid (Aβ25-35) for 18 hrs, Aβ25-35 line = toxin alone, read-out: Cell Survival (%)
Method: (§5) The murine hippocampal neuronal cell line HT-22 was incubated at 37° C. in DMEM (Dulbecco's Modified Eagle's Medium) supplemented with 10% FBS (fetal bovine serum) and 1% penicillin/streptomycin in a 5% CO2 incubator. Before testing, HT-22 cells were seeded at a density of 5×10^3 cells/well onto 96-well plates containing serum-free DMEM and incubated for 1 hr. Afterwards, each of the compounds of Examples 1 to 27 was added at a concentration of 25 μM to each well before incubation for 18 hrs. 5 mg/ml MTT (3-(4,5-dimethyl-2-thiozolyl)-2,5-diphenyl-2H-tetrazolium bromide) solution was added in an amount of 15 μl per well and incubated for 4 hrs. A solubilization solution (10% SDS, 50% dimethylformamide, pH 4.7) was added in an amount of 100 μl to each well, followed by incubation for 18 hrs. Absorbance at 570 nm/630 nm was read on a microplate reader.
The following experiment was performed in order to examine the ability of the compounds of the Examples in accordance with the present invention to alleviate beta amyloid toxicity. HT-22 cells were cultured and incubated with the compounds of Examples 1 to 27 for 1 hr in the same manner as in Example 2. Cell necrosis was induced by beta amyloid toxicity. For this, the cells were incubated with 25 μM of beta amyloid (Aβ25-35) for 18 hrs. Subsequently, a 5 mg/ml MTT solution was added in an amount of 15 μl to each well, followed by incubation for 4 hrs. Then, the cells were again incubated for 18 hrs with 100 μl/well of the solubilization solution. Absorbance at 570 nm/630 nm was read on a microplate reader.

HT-22 cells = assay: Cytotoxicity in HT-22 cell (MTT); type: cell-based, murine; details: compound 25 μM, 18 hrs
Method: The following experiment was performed with HT-22 cells in order to examine the cytotoxicity of the compounds of the Examples in accordance with the present invention.
as §5

beta amyloid (1-42) = beta amyloid (1-42) (Homo sapiens, UniProt P05067); assay: Inhibitory activity against beta amyloid fibril formation (ThT fluorescence); type: biochemical; details: for remaining activity at 10 µM: compound 10 μM, beta amyloid (1-42) 25 μM, 1 hr room temperature, beta amyloid alone (control) = 100
Method: The compounds of the present invention were assayed for inhibitory activity against the formation of beta amyloid fibrils as a function of ThT fluorescence intensity as follows. Beta amyloid (1-42) and each of the compounds of Examples 1 to 27 were dissolved in DMSO and diluted with PBS (phosphate-buffered saline, pH 7.4). The final concentrations of beta amyloid (1-42) (control) and each of the compounds of Examples 1 to 27 were set at 25 μM and 10 μM, respectively. The dilutions were incubated at room temperature for 1 hr before a solution of thioflavin T (ThT, 5 μM, pH 8.5) in glycin-NaOH buffer was added thereto. Fluorescence was measured at 450 nm for excitation (slit 10 nm) and […] for emission (slit 10 nm) on 96-well microplates using a multilabel fluorescence counter.

[4] = system: beta amyloid (1-42) injected mice; assay: Water maze test, acute Alzheimer's disease model; type: in vivo; details: mice injected with beta amyloid (1-42), Days 3 to 7
Method: as §1
In a water maze test, a mouse, when released from a randomly selected quadrant on each trial, was allowed to swim around the pool in search of an exit while the time taken to reach the platform (latency) was recorded.

[5] = system: beta amyloid (1-42) injected mice; assay: Y-maze task, acute Alzheimer's disease model; type: in vivo; details: mice i.c.v. injected with beta amyloid (1-42), compounds administered for 2 days, test on Day 2
Method: as §1, §2

[6] = system: beta amyloid (1-42) injected mice; assay: Cognitive performance task, acute Alzheimer's disease model; type: in vivo; design: Cognition % of control: concentration or dose not given beside the values; details: for Cognition Preference (investigation time for new matter/total investigation time): mice i.c.v. injected with beta amyloid (1-42), test on Days 2 and 3; for Cognition % of control: preference relative to control mice
Method: as §1, §3

Chain of beta amyloid (1-42) (P05067 672-713 limits assumed): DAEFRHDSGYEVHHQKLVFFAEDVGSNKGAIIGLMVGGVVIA

Row | Molecule | Memory and learning of beta amyloid (1-42) injected mice (in words) [1] | Passive Avoidance % of control [2] | Passive Avoidance Latency [2] | viability at 25 µM [3] | Cell Survival (%) (HT-22 cells) | Inhibitory activity against fibril formation (in words) (beta amyloid (1-42); Table 3) | remaining activity at 10 µM (beta amyloid (1-42)) | Spatial learning ability in water maze (latency over sessions), FIG. 1 [4] | Y-Maze Spontaneous Alternation (%) [5] | Cognition Preference (investigation time for new matter/total investigation time) [6] | Cognition % of control [6] | Passive Avoidance % of control ([2]; listed as beta amyloid (1-42)) | Reduction of preference for the new matter compared to the control ([6]; beta amyloid (1-42) injected mice) | Recovery of preference for the new matter ([6]; compared to beta amyloid (1-42) injected mice, % of control)
1 | CN(C)c1ccc(/C=C/c2cc(/C=C/c3ccc(N(C)C)c(O)c3)ncn2)cc1O [Ex. 7, (E,E)-4,6-bis[3′-hydroxy-4′-(N,N-dimethylamino)styryl]pyrimidine] | increased memory | 68.7% | 122.5 s | 76.6 ± 12.1% | 132.8 ± 41.1% | remarkable inhibitory activity | 6.3 ± 1.8% | recover spatial learning ability | 67.0% | 0.57 ± 0.02 | 89% |  |  | 
2 | Aβ1-42: beta amyloid peptide of 42 amino acids, injected intracerebroventricularly into mice to induce acute Alzheimer's disease [reference compound] |  | 50.4% | 89.9 s |  |  |  |  | deficient in spatial memory | 61.6% | 0.54 ± 0.02 | 84% | about 50% | about 16% | 
3 | CN(C)c1cc(/C=C/c2cc(/C=C/c3ccc(O)c(N(C)C)c3)ncn2)ccc1O [Ex. 2, (E,E)-4,6-Bis[4′-hydroxy-3′-(N,N-dimethylamino)styryl]pyrimidine] | increased memory | 66.1% | 117.8 s | 85.3 ± 0.1% | 146.2 ± 26.6% |  | 16.5 ± 2.6% | recover spatial learning ability | 71.3% | 0.53 ± 0.05 | 82% |  |  | 
4 | COc1cc(/C=C/c2cc(/C=C/c3ccc(O)c(OC)c3)ncn2)ccc1O [Ex. 6, (E,E)-4,6-bis(4′-hydroxy-3′-methoxystyryl)pyrimidine] | increased memory | 78.1% | 139.2 s | 103 ± 13% | 215.6 ± 3.5% |  | 20.7 ± 5.4% | recover spatial learning ability | 67.9% | 0.61 ± 0.03 | 95% |  |  | about 11%
